In ChEMBL document CHEMBL5518232, “Discovery of New Tricyclic Oxime Sampangine Derivatives as Potent Antifungal Agents for the Treatment of Cryptococcosis and Candidiasis” (J Med Chem, 2024):
Values after ≈ are worked out from the molar mass of the structure shown.

Columns and labels:
Type in all cases: functional
Cryptococcus neoformans [1] = test: Antifungal activity against Cryptococcus neoformans assessed as reduction in fungal growth incubated for 24 hrs by broth microdilution method
Candida albicans [2] = test: Antifungal activity against Candida albicans assessed as reduction in fungal growth incubated for 24 hrs by broth microdilution method
Candida albicans [3] = test: Antifungal activity against Candida albicans SC5314 assessed as reduction in fungal growth incubated for 48 hrs by liquid based microdilution method
Candida albicans [4] = test: Antifungal activity against Candida albicans 0304103 assessed as reduction in fungal growth incubated for 48 hrs by liquid based microdilution method
Candida tropicalis = test: Antifungal activity against Candida tropicalis 10186 assessed as reduction in fungal growth incubated for 48 hrs by liquid based microdilution method
Nakaseomyces glabratus = test: Antifungal activity against Candida glabrata 9073 assessed as reduction in fungal growth incubated for 48 hrs by liquid based microdilution method
Cryptococcus neoformans [5] = test: Antifungal activity against Cryptococcus neoformans H99 assessed as reduction in fungal growth incubated for 72 hrs by liquid based microdilution method
Cryptococcus neoformans [6] = test: Antifungal activity against Cryptococcus neoformans ATCC 34877 assessed as reduction in fungal growth incubated for 72 hrs by liquid based microdilution method
[7] = Antifungal activity against Cryptococcus gattii VGI ATCC 14116 assessed as reduction in fungal growth incubated for 72 hrs by liquid based microdilution method
Candida albicans [8] = test: Synergistic antifungal activity against Candida albicans 0304103 assessed as inhibition of fungal growth incubated for 48 hrs in presence of fluconazole by checkerboard microdilution assay
Candida albicans [9] = test: Synergistic antifungal activity against Candida albicans 0304103 assessed as fractional inhibitory concentration index by measuring ratio of MIC80 for compound and synergetic / MIC80 for compound alone + MIC80 for fluconazole synergetic / MIC80 for fluconazole alone

Row | MIC80 (Cryptococcus neoformans [1]) | MIC80 (Candida albicans [2]) | MIC80 (Candida albicans [3]) | MIC80 (Candida albicans [4]) | MIC80 (Candida tropicalis) | MIC80 (Nakaseomyces glabratus) | MIC80 (Cryptococcus neoformans [5]) | MIC80 (Cryptococcus neoformans [6]) | MIC80 [7] | MIC80 (Candida albicans [8]) | SMILES | fractional inhibitory concentration index (FICI) (Candida albicans [9])
1 | 0.25 µg/mL (≈ 0.912 µM) | 0.5 µg/mL (≈ 1.82 µM) | – | – | – | – | – | – | – | – | Cc1ccnc2c1C(=O)c1sc([N+](=O)[O-])cc1C2=O | –
2 | – | – | > 64 µg/mL | > 64 µg/mL | > 64 µg/mL | > 64 µg/mL | 0.13 µg/mL (≈ 0.496 µM) | 2 µg/mL (≈ 7.63 µM) | 4 µg/mL (≈ 15.3 µM) | 2 µg/mL | CCO/N=C1/c2ccsc2C(=O)c2c(C)noc21 | 0.047
3 | – | – | > 64 µg/mL | > 64 µg/mL | > 64 µg/mL | > 64 µg/mL | > 64 µg/mL | – | – | 2 µg/mL | Cc1noc2c1C(=O)c1sccc1/C2=N/OC(C)C | 0.063
4 | – | – | > 64 µg/mL | > 64 µg/mL | > 64 µg/mL | > 64 µg/mL | 64 µg/mL (≈ 257 µM) | – | – | 2 µg/mL | CO/N=C1/c2ccsc2C(=O)c2ccsc21 | 0.047
